Values quoted from earlier work as cited in patent publication US20070275062A1, “Controlled release oxycodone compositions” (priority 1993, published 2007).
Where two headings read alike, the source gives them in different places.

System: pain
Settings: for dose-response slopes: Beaver, et al.

**Q.** For `COc1ccc2c3c1O[C@H]1C(=O)CC[C@@]4(O)[C@@H](C2)N(C)CC[C@]314` [oxycodone], which “parallelism of the dose-response curves” value (in comparison with other oral and parenteral opioids) is on record?
**A.** The value was “no substantial deviation from parallelism”.

**Q.** What about the dose-response slopes (oral as compared to parenteral oxycodone) of the same compound?
**A.** The dose-response slopes was “comparable dose-response slopes”.

**Q.** What about the dose-response slopes (parenteral oxycodone as compared to parenteral morphine) of the same compound?
**A.** The dose-response slopes was “comparable dose-response slopes”.
